We go through seven molecules from US9040586B2, “Veterinary compositions for controlling ecto- and endoparasites in bovines, use of these compositions, use of IGR substances associated with microminerals, method for controlling ecto- and endoparasites in bovines and kit” (Champion Farmoquimico Ltda., priority 2012, dated 2015).

Series [1] deals with Haematobia irritans. Briefly: Haematobia irritans in vitro test: eggs developed in feces of treated cattle. The series is classed as in vivo. The conditions noted are these: 20 days. How it is done: In order to evaluate the efficacy of Diflubenzuron over H. irritans larval development, without possible interference of climate changes, an experiment was conducted under controlled conditions.
Adult horn flies over untreated animals were captured with a net and then shipped to the Tropical Pathology and Public Health Institute (IPTSP/GO) in order to obtain the eggs. The flies were put on cages lined with moist coffee filter as a substrate for oviposition. The filter was inspected every three hours for eggs. Those were subject to analysis regarding viability and transferred to a vessel containing feces from 4 animals among the control and diflubenzuron treated groups, randomly chosen, each containing 50 viable eggs. These containers with feces were maintained in a B.O.D. incubator with constant temperature (25° C.) and under photoperiod of 12 hours, for a 20 day period, at the end of which was noted an end to the hatching of eggs.
Both groups—T0 e T1—, were statistically compared by the Mann-Whitney test, with P adjusted in 0.05 due to the impossibility of testing distribution normality, given the low number of repetitions (n=4).

Series [2] concerns Haematobia irritans. Put plainly: Haematobia irritans field test: horn fly counts on calves. The series is classed as in vivo. The protocol:
The experiment was conducted at Fazenda Santo Amaro in the city of Ouro Verde de Goiás—GO, Brazil, between October 2011 and January 2012, on 20 calves aged 12-16 months and weigh between 147 and 305 kg, divided in control group (T0) and treated group (T1).
The animals were weighed, identified and kept on Brachiaha brizantha pasture with “ad libitum” access to drinking water troughs. The control group received “ad libitum” minerals (T0), while the treated group received a micromineral mixture containing iron, copper, manganese, iodine, cobalt, zinc, selenium and chromium added to rock salt. Diflubenzuron was added to this mixture in the following proportion: 1.1 g per kilo of the mixture. A macromineral source was offered separately in the trough.
In order to determine the number of horn flies, ticks and helminth eggs per gram of feces, as well as periodic weighing, the animals were handled in a 30 day basis.
The animals were lead to the corral for the initial counting of the total number of horn flies in the cervical and lumbar regions.
The field experiment was conducted during the summer, a critical period for horn fly infestations in Brazil (BIANCHIN et al., 2004). […]
At the end of the experimental period, the animals were lead to the containment chute to have the flies counted. […]

Series [3] has as its system Rhipicephalus (Boophilus) microplus. Put plainly: Rhipicephalus (Boophilus) microplus challenge: engorged female weight and oviposition. In kind it is in vivo, calves. The conditions noted are these: treated group. How it is done:
For this challenge, 5 animals were randomly selected from each group. Animals from both control and treated groups were transferred to individual tick-free pens with wooden tiled floor, where they remained for 21 days until the engorged females dropped to the ground. Those were collected on a daily basis for a 5 day period, and put on plastic vessels, formerly washed and dried with paper towels. After the engorged ticks were weighed, they're put on Petri dishes and then into a B.O.D. incubator for two weeks, under 27° C. and relative humidity over 85% (SANTOS e FURLONG, 2002; PEREIRA, 2006).
After this period, oviposition in each of the Petri dishes were weighed and transferred to assay tubes (15 cm high and with a 15 mm diameter each) sealed with cotton. The assays tubes were labeled and then returned to the B.O.D. incubator, under the same conditions described above, up to the larval emergence.

For series [4] the following is noted: cited from earlier work.
The conditions of series [5]: cited from earlier work. This is another data set of the same source.
The subject of series [6] is gastrointestinal nematodes of cattle. To be noted: 19 of the 23 farms; cited from earlier work.

As to `O=C(NC(=O)c1c(F)cccc1F)Nc1ccc(Cl)cc1` [Diflubenzuron, 1-(4-chloridephenyl)-3-(2,6-difulorobenzoyl)urea], in the series with Haematobia irritans [1] (50 viable eggs per container, feces of treated cattle, 25° C., control 43±4.1633), the hatching average is given as 0.5±0.1. Besides, in the series with Haematobia irritans [1] (in vitro, method of HOLDSWORTH et al., 2006), the “calculated efficiency, based on the control group” value was 98.83%. The “reduction on horn fly numbers on the treated group” value in the series with Haematobia irritans [2] is “higher than 99%”. The “average engorged female ticks' weight” value in series [3] (control 278 mg) came out at 153 mg. Besides, the “weight of collected engorged ticks” value in series [3] (control 260-295 mg) was 145 to 165 mg. Further, the “average egg laying of the female” value in series [3] (control 2,600) was found to be 900 eggs. In addition, the median lethal dose in series [4] (in vivo) is 4,640 mg/kg.
Take Abamectin: the “Oral LD50” value in series [4] was 10 mg/kg.
`CC1(C)C(C=C(Cl)Cl)C1C(=O)OC(C#N)c1cccc(Oc2ccccc2)c1` (stereo not drawn) [Cypermethrin]: the “Oral LD50” value in series [4] is 250 mg/kg.
Take `CC1(C)[C@H](C(=O)O[C@H](C#N)c2cccc(Oc3ccccc3)c2)[C@@H]1C=C(Br)Br` [Deltamethrin]: in series [4], the “Oral LD50” value is on record as 130 mg/kg.
For `N#Cc1nn(-c2c(Cl)cc(C(F)(F)F)cc2Cl)c(N)c1[S+]([O-])C(F)(F)F` (stereo not drawn) [Fipronil], the “Oral LD50” value in series [4] is 97 mg/kg.
Take `Cc1ccc(N=c2sccn2C)c(C)c1` [Cymiazoles]: in series [5] (beef cattle), the “withdrawal prior to slaughter” value is given as 3 days. The “Withdrawal period Milk” value in series [5] (milk / lactating cows, in words, table cells wrap over 4 rows: 'Do not apply on lactating cows') is given as “no withdrawn period needed”.
Ivermectin: in series [4], the “Oral LD50” value is reported as 52 mg/kg. For the same molecule, in series [6], the “reductions in FEC” value is below 50%.
